# Measured values: the OligoGym collection
# HELM strings list units from the 5' end as sugar, base in round brackets, then linkage (d deoxyribose, r ribose, m 2'-O-methyl, p phosphodiester). Strings are as the collection lists them; they lack the last nucleoside at the 3' end of the tested compound. [moe] = 2'-O-(2-methoxyethyl) (MOE); [sp] = phosphorothioate linkage; [m5C] = 5-methylcytosine
# Target: ATXN2
# Experiment: mouse, dose not given
# Conditions: ASO
row,Substance,3 h FOB score
1,RNA1{[moe](G)[sp].[moe]([m5C])p.[moe](T)p.[moe](T)p.[moe](A)p.d(G)[sp].d(A)[sp].d(G)[sp].d(T)[sp].d(T)[sp].d(T)[sp].d(T)[sp].d(T)[sp].d(G)[sp].d([m5C])[sp].[moe]([m5C])p.[moe](T)p.[moe](T)[sp].[moe]([m5C])}$$$$ (last 3' nucleoside missing),4 score 0-7
2,RNA1{[moe](T)[sp].[moe](T)p.[moe]([m5C])p.[moe](T)p.[moe](G)[sp].d([m5C])[sp].d(T)[sp].d(A)[sp].d(A)[sp].d([m5C])[sp].d(T)[sp].d(G)[sp].d(G)[sp].[moe](T)p.[moe](T)p.[moe](T)[sp].[moe](G)}$$$$ (last 3' nucleoside missing),1.75 score 0-7
3,RNA1{[moe](T)[sp].[moe](A)p.[moe]([m5C])p.[moe](T)p.[moe](G)p.d(T)[sp].d(T)[sp].d(T)[sp].d([m5C])[sp].d(G)[sp].d(A)[sp].d([m5C])[sp].d([m5C])[sp].d(T)[sp].d([m5C])[sp].[moe](T)p.[moe](G)p.[moe](A)[sp].[moe](A)}$$$$ (last 3' nucleoside missing),3 score 0-7
4,RNA1{[moe](A)[sp].[moe]([m5C])p.[moe](A)p.[moe]([m5C])p.d(A)[sp].d(G)[sp].d(T)[sp].d(T)[sp].d(T)[sp].d([m5C])[sp].d(A)[sp].d([m5C])[sp].d(T)[sp].d(A)[sp].[moe](G)p.[moe](G)p.[moe](T)p.[moe](T)[sp].[moe]([m5C])}$$$$ (last 3' nucleoside missing),0 score 0-7
5,RNA1{[moe](T)[sp].[moe](T)p.[moe](G)p.[moe](T)p.[moe](T)p.d([m5C])[sp].d(T)[sp].d(T)[sp].d([m5C])[sp].d([m5C])[sp].d(A)[sp].d(A)[sp].d(T)[sp].d(T)[sp].d(T)[sp].[moe]([m5C])p.[moe](A)p.[moe](G)[sp].[moe](A)}$$$$ (last 3' nucleoside missing),0 score 0-7
6,RNA1{[moe](G)[sp].[moe](T)p.[moe](G)p.[moe](T)p.[moe](T)p.d(G)[sp].d([m5C])[sp].d(A)[sp].d([m5C])[sp].d(A)[sp].d(T)[sp].d(A)[sp].d(G)[sp].d(G)[sp].d(T)[sp].[moe](T)p.[moe](A)p.[moe](G)[sp].[moe](A)}$$$$ (last 3' nucleoside missing),6.5 score 0-7
7,RNA1{[moe](A)[sp].[moe](A)p.[moe](G)p.[moe](A)p.[moe](A)p.d(T)[sp].d([m5C])[sp].d([m5C])[sp].d(T)[sp].d(T)[sp].d(A)[sp].d(G)[sp].d([m5C])[sp].d(A)[sp].d([m5C])[sp].[moe](T)p.[moe](T)p.[moe](G)[sp].[moe](G)}$$$$ (last 3' nucleoside missing),6.25 score 0-7
8,RNA1{[moe]([m5C])[sp].[moe](T)p.[moe](T)p.[moe](A)p.[moe](G)p.[moe](A)p.d(G)[sp].d(T)[sp].d(T)[sp].d(T)[sp].d(T)[sp].d(T)[sp].d(G)[sp].d([m5C])[sp].d([m5C])[sp].d(T)[sp].[moe](T)p.[moe]([m5C])[sp].[moe]([m5C])}$$$$ (last 3' nucleoside missing),4.5 score 0-7
9,RNA1{[moe]([m5C])[sp].[moe](T)p.[moe]([m5C])p.[moe]([m5C])p.[moe](A)p.d(T)[sp].d(T)[sp].d(A)[sp].d(T)[sp].d(T)[sp].d(T)[sp].d([m5C])[sp].d(T)[sp].d(T)[sp].d([m5C])[sp].[moe](A)p.[moe]([m5C])p.[moe](G)[sp].[moe](T)}$$$$ (last 3' nucleoside missing),1 score 0-7
10,RNA1{[moe](G)[sp].[moe](A)p.[moe]([m5C])p.[moe](A)p.[moe](T)p.d(G)[sp].d([m5C])[sp].d(G)[sp].d(G)[sp].d(T)[sp].d(T)[sp].d(T)[sp].d([m5C])[sp].d(A)[sp].d([m5C])[sp].[moe]([m5C])p.[moe](A)p.[moe](T)[sp].[moe](T)}$$$$ (last 3' nucleoside missing),4 score 0-7
11,RNA1{[moe]([m5C])[sp].[moe](T)p.[moe](T)p.[moe]([m5C])p.[moe](T)p.d([m5C])[sp].d(T)[sp].d(A)[sp].d(T)[sp].d(T)[sp].d(T)[sp].d([m5C])[sp].d(T)[sp].d(T)[sp].d(T)[sp].[moe](G)p.[moe](T)p.[moe]([m5C])[sp].[moe]([m5C])}$$$$ (last 3' nucleoside missing),1 score 0-7
12,RNA1{[moe](T)[sp].[moe](G)p.[moe](T)p.[moe](G)p.[moe](T)p.d(T)[sp].d([m5C])[sp].d(A)[sp].d(T)[sp].d(G)[sp].d(A)[sp].d([m5C])[sp].d(T)[sp].d(T)[sp].d(T)[sp].[moe]([m5C])p.[moe](A)p.[moe](A)[sp].[moe](G)}$$$$ (last 3' nucleoside missing),4.5 score 0-7
13,RNA1{[moe](G)[sp].[moe](G)p.[moe](T)p.[moe](A)p.[moe]([m5C])p.d(A)[sp].d([m5C])[sp].d(A)[sp].d(G)[sp].d(T)[sp].d(T)[sp].d(T)[sp].d([m5C])[sp].d(A)[sp].d([m5C])[sp].[moe](T)p.[moe](A)p.[moe](G)[sp].[moe](G)}$$$$ (last 3' nucleoside missing),4.75 score 0-7
14,RNA1{[moe](G)[sp].[moe](G)p.[moe](A)p.[moe](T)p.[moe](A)p.d([m5C])[sp].d(A)[sp].d(A)[sp].d(A)[sp].d(T)[sp].d(T)[sp].d([m5C])[sp].d(T)[sp].d(A)[sp].d(G)[sp].[moe](G)p.[moe]([m5C])p.[moe]([m5C])[sp].[moe](A)}$$$$ (last 3' nucleoside missing),4 score 0-7
15,RNA1{[moe](A)[sp].[moe](A)p.[moe]([m5C])p.[moe](A)p.[moe](G)p.d([m5C])[sp].d(T)[sp].d([m5C])[sp].d(T)[sp].d(G)[sp].d(T)[sp].d(T)[sp].d([m5C])[sp].d(G)[sp].d(A)[sp].[moe](T)p.[moe](G)p.[moe]([m5C])[sp].[moe](A)}$$$$ (last 3' nucleoside missing),6 score 0-7
16,RNA1{[moe](T)[sp].[moe]([m5C])p.[moe](T)p.[moe]([m5C])p.[moe](T)[sp].d(A)[sp].d(T)[sp].d(T)[sp].d(T)[sp].d([m5C])[sp].d(T)[sp].d(T)[sp].d(T)[sp].[moe](G)p.[moe](T)p.[moe]([m5C])[sp].[moe]([m5C])}$$$$ (last 3' nucleoside missing),1 score 0-7
17,RNA1{[moe]([m5C])[sp].[moe](G)p.[moe](G)p.[moe](A)p.[moe](T)p.d(T)[sp].d(G)[sp].d(T)[sp].d(T)[sp].d(T)[sp].d(T)[sp].d([m5C])[sp].d(T)[sp].d(T)[sp].d([m5C])[sp].[moe](A)p.[moe](T)p.[moe](T)[sp].[moe](A)}$$$$ (last 3' nucleoside missing),1 score 0-7
18,RNA1{[moe](A)[sp].[moe](T)p.[moe]([m5C])p.[moe](A)p.[moe](G)p.d(T)[sp].d(A)[sp].d(T)[sp].d(T)[sp].d(T)[sp].d(A)[sp].d([m5C])[sp].d(T)[sp].d(A)[sp].d([m5C])[sp].[moe](T)p.[moe](T)p.[moe]([m5C])[sp].[moe](T)}$$$$ (last 3' nucleoside missing),2.75 score 0-7
19,RNA1{[moe]([m5C])[sp].[moe](A)p.[moe]([m5C])p.[moe](A)p.[moe](G)p.d(T)[sp].d(T)[sp].d(T)[sp].d([m5C])[sp].d(A)[sp].d([m5C])[sp].d(T)[sp].d(A)[sp].d(G)[sp].d(G)[sp].[moe](T)p.[moe](T)p.[moe]([m5C])[sp].[moe](T)}$$$$ (last 3' nucleoside missing),4.25 score 0-7
20,RNA1{[moe]([m5C])[sp].[moe](T)p.[moe](A)p.[moe](A)p.[moe]([m5C])[sp].d(T)[sp].d(G)[sp].d(G)[sp].d(T)[sp].d(T)[sp].d(T)[sp].d(G)[sp].d([m5C])[sp].[moe]([m5C])p.[moe]([m5C])p.[moe](T)[sp].[moe](T)}$$$$ (last 3' nucleoside missing),7 score 0-7
21,RNA1{[moe](A)[sp].[moe]([m5C])p.[moe](T)p.[moe]([m5C])p.[moe](T)p.d([m5C])[sp].d([m5C])[sp].d(A)[sp].d(T)[sp].d(T)[sp].d(A)[sp].d(T)[sp].d(T)[sp].d(T)[sp].d([m5C])[sp].[moe](T)p.[moe](T)p.[moe]([m5C])[sp].[moe](A)}$$$$ (last 3' nucleoside missing),1 score 0-7
22,RNA1{[moe](G)[sp].[moe](T)p.[moe](A)p.[moe](T)p.[moe]([m5C])p.d(A)[sp].d(T)[sp].d(A)[sp].d(T)[sp].d(A)[sp].d(T)[sp].d(T)[sp].d(T)[sp].d([m5C])[sp].d(T)[sp].[moe]([m5C])p.[moe](A)p.[moe](G)[sp].[moe]([m5C])}$$$$ (last 3' nucleoside missing),2.25 score 0-7
23,RNA1{[moe](T)[sp].[moe]([m5C])p.[moe](T)p.[moe](G)p.[moe](T)[sp].d(A)[sp].d([m5C])[sp].d(T)[sp].d(T)[sp].d(T)[sp].d(T)[sp].d([m5C])[sp].d(T)[sp].d([m5C])[sp].d(A)[sp].[moe](T)p.[moe](G)p.[moe](T)[sp].[moe](G)}$$$$ (last 3' nucleoside missing),0 score 0-7
24,RNA1{[moe]([m5C])[sp].[moe]([m5C])p.[moe](T)p.[moe](A)p.[moe](T)p.d([m5C])[sp].d(A)[sp].d(T)[sp].d([m5C])[sp].d(A)[sp].d(T)[sp].d(T)[sp].d(T)[sp].d(T)[sp].d([m5C])[sp].[moe]([m5C])p.[moe](A)p.[moe](G)[sp].[moe](G)}$$$$ (last 3' nucleoside missing),5.5 score 0-7
25,RNA1{[moe](G)[sp].[moe](T)p.[moe](A)p.[moe]([m5C])p.[moe](A)p.d([m5C])[sp].d(A)[sp].d(G)[sp].d(T)[sp].d(T)[sp].d(T)[sp].d([m5C])[sp].d(A)[sp].d([m5C])[sp].d(T)[sp].[moe](A)p.[moe](G)p.[moe](G)[sp].[moe](T)}$$$$ (last 3' nucleoside missing),3 score 0-7
26,RNA1{[moe]([m5C])[sp].[moe](T)p.[moe](G)p.[moe](G)p.[moe](T)p.d(T)[sp].d([m5C])[sp].d([m5C])[sp].d(T)[sp].d(T)[sp].d(A)[sp].d([m5C])[sp].d(A)[sp].d(A)[sp].d(T)[sp].[moe](T)p.[moe](A)p.[moe](T)[sp].[moe]([m5C])}$$$$ (last 3' nucleoside missing),1 score 0-7
